Experimental data reported in DBAASP.
In brackets after ≈: the same amount, converted by molar mass. Several values for one entry are separate records, joined by “and”; a condition that tells them apart may be missing. Equal entries are not always repeated. Each block holds one compound with its values, some of them ahead of it.

Legend:
Experiment in all cases: ≥ marks a high value that may be exact or a test limit, other limits are often not marked, values filed in µg/mL are converted to µM
[1] = system: Klebsiella pneumoniae M9491
[2] = system: Enterococcus faecium PZAP 95
[3] = system: Escherichia coli PCOS 15
[4] = system: Acinetobacter sp. M5949
[5] = system: Enterococcus faecalis ATCC 51299
[6] = system: Klebsiella pneumoniae M5825
[7] = system: Acinetobacter sp. M9665
[8] = system: Klebsiella pneumoniae M9170
[9] = system: Staphylococcus saprophyticus M4070
[10] = system: Escherichia coli ATCC 25922
[11] = system: Escherichia coli M5306
[12] = system: Acinetobacter sp. M13523
[13] = system: Enterococcus gallinarum M2685
[14] = system: Staphylococcus aureus ATCC 25923
[15] = system: Acinetobacter sp. M9013
[16] = system: Staphylococcus epidermidis M2921
[17] = system: Staphylococcus hominis M2973
[18] = system: Enterococcus faecalis M4899
[19] = system: Staphylococcus aureus M6784
[20] = system: Staphylococcus hominis M2967
[21] = system: Staphylococcus cohnii
[22] = system: Enterococcus faecium M2664
[23] = system: Staphylococcus haemolyticus M2976
[24] = system: Enterococcus gallinarum M2723
[25] = system: Staphylococcus aureus P33
[26] = system: Staphylococcus warneri
[27] = system: Klebsiella pneumoniae PFAV 3
[28] = system: Klebsiella pneumoniae M13540
[29] = system: Enterococcus faecalis M6534
[30] = system: Enterococcus faecalis ATCC 29212
[31] = system: Staphylococcus saprophyticus M2981
[32] = system: Escherichia coli M9884
[33] = system: Staphylococcus aureus P204
[34] = system: Pseudomonas aeruginosa PACO12
[35] = system: Pseudomonas aeruginosa ATCC 27853
[36] = system: Staphylococcus epidermidis M2923
[37] = system: Salmonella enterica subsp. enterica serovar Enteritidis ATCC 13076
[38] = system: Staphylococcus aureus ATCC 43300
[39] = system: Staphylococcus aureus ATCC BAA-39
[40] = system: Klebsiella pneumoniae ATCC 13883
[41] = system: Listeria monocytogenes ATCC 19115
[42] = system: Staphylococcus aureus ATCC 29213
[43] = system: Candida albicans ATCC 37092
[44] = system: Pseudomonas aeruginosa KCTC 1637
[45] = system: Escherichia coli CCARM 1238
[46] = system: Escherichia coli KCTC 1682
[47] = system: Salmonella typhimurium CCARM 8003
[48] = system: Staphylococcus aureus KCTC 1621
[49] = system: Escherichia coli CCARM 1229
[50] = system: Staphylococcus aureus CCARM 3089
[51] = system: Bacillus subtilis KCTC 3068
[52] = system: Staphylococcus epidermidis KCTC 1917
[53] = system: Staphylococcus aureus CCARM 3114
[54] = system: Salmonella typhimurium KCTC 1926

- MIC [1]: 26.4 µM (≈ 64 µg/mL)
- MIC [2]: 6.61 µM (≈ 16 µg/mL)
- MIC [3]: 26.4 µM (≈ 64 µg/mL)
- MIC [4]: 6.61 µM (≈ 16 µg/mL)
- MIC [5]: ≥ 106 µM
- MIC [6]: 3.3 µM (≈ 8 µg/mL)
- MIC [7]: 13.2 µM (≈ 32 µg/mL)
- MIC [8]: 13.2 µM (≈ 32 µg/mL)
- MIC [9]: 13.2 µM (≈ 32 µg/mL)
- MIC [10]: 13.2 µM (≈ 32 µg/mL)
- MIC [11]: 1.65 µM (≈ 4 µg/mL)
- MIC [12]: 1.65 µM (≈ 4 µg/mL)
- MIC [13]: 6.61 µM (≈ 16 µg/mL)
- MIC [14]: 26.4 µM (≈ 64 µg/mL)
- MIC [15]: 3.3 µM (≈ 8 µg/mL)
- MIC [16]: 3.3 µM (≈ 8 µg/mL)
- MIC [17]: 1.65 µM (≈ 4 µg/mL)
- MIC [18]: ≥ 52.9 µM
- MIC [19]: 13.2 µM (≈ 32 µg/mL)
- MIC [20]: 3.3 µM (≈ 8 µg/mL)
- MIC [21]: 6.61 µM (≈ 16 µg/mL)
- MIC [22]: 3.3 µM (≈ 8 µg/mL)
- MIC [24]: 13.2 µM (≈ 32 µg/mL)
- MIC [25]: ≥ 52.9 µM
- MIC [26]: 3.3 µM (≈ 8 µg/mL)
- MIC [27]: ≥ 52.9 µM
- MIC [28]: 6.61 µM (≈ 16 µg/mL)
- MIC [29]: ≥ 106 µM
- MIC [30]: 52.9 µM (≈ 128 µg/mL)
- MIC [31]: 3.3 µM (≈ 8 µg/mL)
- MIC [32]: 13.2 µM (≈ 32 µg/mL)
- MIC [33]: 26.4 µM (≈ 64 µg/mL)
- MIC [34]: 26.4 µM (≈ 64 µg/mL)
- MIC [35]: 26.4 µM (≈ 64 µg/mL)
- MIC [36]: 6.61 µM (≈ 16 µg/mL)
SMILES: CC[C@H](C)[C@H](NC(=O)[C@H](CCCN=C(N)N)NC(=O)[C@H](CCCCN)NC(=O)[C@H](Cc1ccccc1)NC(=O)[C@H](CCC(=O)O)NC(=O)[C@H](CCCCN)NC(=O)[C@H](Cc1c[nH]c2ccccc12)NC(=O)[C@H](CCCCN)NC(=O)[C@H](CCCCN)NC(=O)[C@H](CC(C)C)NC(=O)[C@H](Cc1c[nH]c2ccccc12)NC(=O)[C@H](CCCCN)NC(=O)[C@H](CCCCN)NC(=O)[C@H](CC(C)C)NC(=O)[C@H](CC(C)C)NC(=O)CN)C(=O)N[C@H](C(=O)NCC(=O)N[C@@H](Cc1ccc(O)cc1)C(N)=O)C(C)C [GLLKKWLKKWKEFKRIVGY]
- MIC [23]: 3.3 µM (≈ 8 µg/mL)

- MIC [10]: 22.6 µM and 32 µM
- MIC [14]: 11.3 µM and 32 µM
- MIC [37]: 16 µM (≈ 27.9 µg/mL)
- MIC [38]: 32 µM (≈ 55.9 µg/mL)
- MIC [39]: ≥ 32 µM
- MIC [40]: 16 µM and ≥ 32 µM
- MIC [41]: 22.6 µM and ≥ 32 µM
SMILES: CC[C@H](C)[C@H](NC(=O)[C@H](CCCCN)NC(=O)[C@H](CCCN=C(N)N)NC(=O)[C@H](CC(C)C)NC(=O)[C@H](Cc1ccccc1)NC(=O)[C@H](CCCN=C(N)N)NC(=O)CNC(=O)[C@H](Cc1ccccc1)NC(=O)[C@H](CCCN=C(N)N)NC(=O)CNC(=O)[C@H](CCCN=C(N)N)NC(=O)[C@H](CCC(N)=O)NC(=O)[C@@H](NC(=O)[C@@H](N)CC(C)C)C(C)C)C(=O)O [LVQRGRFGRFLRKI]

- MIC [10]: 114 µM (≈ 218 µg/mL)
- MIC [42]: > 500 µM
- MIC [43]: ≥ 500 µM
SMILES: CC(C)C[C@H](NC(=O)[C@@H](N)CCCN=C(N)N)C(=O)N1CCC[C@H]1C(=O)N[C@@H](CCCN=C(N)N)C(=O)N1CCC[C@H]1C(=O)N[C@@H](CCCN=C(N)N)C(=O)N1CCC[C@H]1C(=O)N[C@@H](CCCN=C(N)N)C(=O)N1CCC[C@H]1C(=O)N[C@@H](CC(C)C)C(=O)N1CCC[C@H]1C(=O)N[C@@H](Cc1ccccc1)C(=O)N1CCC[C@H]1C(=O)N[C@@H](CCCN=C(N)N)C(=O)N1CCC[C@H]1C(=O)NCC(=O)O [RLPRPRPRPLPFPRPG]

- MIC [44]: ≥ 32 µM
- MIC [45]: 8 µM (≈ 8.32 µg/mL)
- MIC [46]: 8 µM (≈ 8.32 µg/mL)
- MIC [47]: ≥ 32 µM
- MIC [48]: 16 µM (≈ 16.6 µg/mL)
- MIC [49]: 16 µM (≈ 16.6 µg/mL)
- MIC [50]: 16 µM (≈ 16.6 µg/mL)
- MIC [51]: 8 µM (≈ 8.32 µg/mL)
- MIC [52]: 4 µM (≈ 4.16 µg/mL)
- MIC [53]: ≥ 32 µM
- MIC [54]: ≥ 32 µM
SMILES: CC[C@H](C)[C@H](NC(=O)[C@H](C)NC(=O)[C@H](CC(C)C)NC(=O)[C@H](Cc1c[nH]c2ccccc12)NC(=O)[C@H](CC(C)C)NC(=O)[C@@H](N)CCCN=C(N)N)C(=O)NCC(=O)N[C@@H](CCCN=C(N)N)C(=O)NCC(N)=O [RLWLAIGRG]
